Laboratory results: paper PMC7641245 (Chemical communications (Cambridge, England), 2020)

Target: T1, hIAPP (human islet amyloid polypeptide) (Homo sapiens, UniProt P10997)
T1 sequence (P10997 34-70): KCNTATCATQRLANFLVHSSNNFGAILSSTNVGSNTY
Assay: isothermal titration calorimetry
Format: binding
Conditions: hIAPP fibers; no interaction seen by ITC with hIAPP monomers

Kd: ~7 µM
Substance: CurDAc
